The target of this assay is T1, human FAAH (Homo sapiens, UniProt O00519).
T1 construct: made in house; 10000 g pellet suspended in M-PER
T1 sequence (O00519 1-579): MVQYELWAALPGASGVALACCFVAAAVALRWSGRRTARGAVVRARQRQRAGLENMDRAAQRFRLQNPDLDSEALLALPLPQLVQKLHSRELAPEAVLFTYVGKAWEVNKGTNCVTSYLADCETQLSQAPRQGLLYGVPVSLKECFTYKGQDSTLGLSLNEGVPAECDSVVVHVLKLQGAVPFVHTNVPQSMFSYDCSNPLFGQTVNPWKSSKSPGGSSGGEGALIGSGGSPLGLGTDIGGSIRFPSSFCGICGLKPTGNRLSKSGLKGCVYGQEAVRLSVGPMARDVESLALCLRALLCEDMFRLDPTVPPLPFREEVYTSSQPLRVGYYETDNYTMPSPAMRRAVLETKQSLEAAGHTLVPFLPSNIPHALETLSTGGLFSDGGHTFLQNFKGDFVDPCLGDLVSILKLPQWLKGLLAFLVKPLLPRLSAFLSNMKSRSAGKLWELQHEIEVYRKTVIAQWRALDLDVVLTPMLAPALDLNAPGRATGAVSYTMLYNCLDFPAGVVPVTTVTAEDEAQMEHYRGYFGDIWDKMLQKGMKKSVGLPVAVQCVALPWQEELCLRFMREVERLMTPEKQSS
Description: Measurement of FAAH inhibitory activity (anandamide [ethanolamine 1-3H] hydrolysis, filter plate). In kind it is biochemical. Particulars: test compound 1 μM; CHO-K1/human FAAH enzyme fraction; anandamide 25 nM; 37° C., 30 minutes; read-out: Human FAAH Inhibition Rate at 1 μM (%). On the procedure:
(1) Preparation of Enzyme Fraction
The FAAH gene was cloned by PCR. That is, a human brain library was used as a cDNA library, 5′-[…]-3′ [SEQ ID NO:1] and 5′-[…]-3′ [SEQ ID NO:2] were used as a primer set, and KOD DNA polymerase (Toyobo Co., Ltd.) was used as a DNA polymerase. One cycle of the reaction comprises 95° C. for 30 sec, 55° C. for 30 sec and 72° C. for 2 min, and 45 cycles of the reaction was carried out to obtain an amplified fragment. The amplified fragment was cleaved with restriction enzymes EcoRI and SalI, and then was inserted into a pMSRα vector which had been cleaved with the same restriction enzymes EcoRI and SalI to obtain a pMSRα-human FAAH. A cell line CHO-K1 and the above-obtained plasmid were subjected to a method known per se to prepare the cell line CHO-K1/human FAAH in which human FAAH was stably expressed. The CHO-K1/human FAAH was cultured in a CO2 incubator at 37° C., using a medium (Ham's F-12 medium supplemented with final concentration 10% of fetal bovine serum (FBS) and final concentration 800 μg/ml of G418), and then the cells were harvested. After washing with PBS, the cells were suspended in a buffer (10 mM Tris, 1 mM EDTA and 10 mM MgCl2, all at final concentrations) and disrupted with a Polytron homogenizer. After centrifugation at 900 g, the supernatant was recovered and further centrifuged at 10000 g. A pellet obtained therefrom was suspended in M-PER (Catalog No. 78501; PIERCE) to give an enzyme fraction.
Using a white walled 96-well plate (Coster Corp.), the test compound at various concentrations, 60 ng of the enzyme fraction and the substrate anandamide [ethanolamine 1-^3H] (final concentration 25 nM) were reacted in 50 μl of a reaction buffer (125 mM Tris-HCl (pH 9.0), 1 mM EDTA, 0.4 mM HEPES, 0.2% glycerol and 0.02% Triton X-100, all at final concentrations) at 37° C. for 30 minutes. The reaction mixture was transferred to a 96-well MultiScreen-HA filter plate (Millipore Corp.) and then was left to stand overnight at room temperature in order to allow the unreacted substrate to be adsorbed on the filter. The plate was washed with PBS using a MultiScreen Vacuum Manifold (Millipore Corp.) and dried. To each well, 50 μl of liquid scintillation cocktail was added and stirred, and then counting was performed with a TopCount (Perkin-Elmer Corp.). The count of a sample containing a solvent instead of the test compound was taken as 0%, and the count at zero time was taken as 100%, to calculate the inhibitory activity of the compound.

For orientation: inhibition means the relative decrease from the control value, in per cent.

Each structure is given as a SMILES string. Structures can show the parent of a compound that is named as a salt.

For the compound `Cc1noc(NC(=O)N2CCN(c3nc(-c4ccc(F)cc4F)cs3)CC2)c1C` [Example 260, 4-[4-(2,4-Difluorophenyl)-1,3-thiazol-2-yl]-N-(3,4-dimethylisoxazol-5-yl)piperazine-1-carboxamide], the inhibition at 1 µM turned out to be 102%. As to `O=C(Nc1noc2ccccc12)N1CCN(c2nc(-c3ccccc3)co2)CC1` [Example 23, N-1,2-Benzisoxazol-3-yl-4-(4-phenyl-1,3-oxazol-2-yl)piperazine-1-carboxamide], the inhibition at 1 µM was 100%.

Take `O=C(Nc1cccnn1)N1CCN(c2nc(-c3cccc(F)c3F)cs2)CC1` [Example 272, 4-[4-(2,3-Difluorophenyl)-1,3-thiazol-2-yl]-N-pyridazin-3-ylpiperazine-1-carboxamide]: the inhibition at 1 µM is 102%. For the compound `O=C(Nc1cccnc1)N1CCN(c2nc(-c3ccccc3)cs2)CC1` [Example 94, 4-(4-Phenyl-1,3-thiazol-2-yl)-N-pyridin-3-ylpiperazine-1-carboxamide], the inhibition at 1 µM came to 100%. In the case of `O=C(Nc1noc2ccccc12)N1CCN(c2nc(-c3ccccc3)ns2)CC1` [Example 1, N-1,2-Benzisoxazol-3-yl-4-(3-phenyl-1,2,4-thiadiazol-5-yl)piperazine-1-carboxamide], the inhibition at 1 µM came out at 100%. Turning to `O=C(Nc1cnccn1)N1CCN(c2nc(-c3cccc(F)c3)cs2)CC1` [Example 229, 4-[4-(3-Fluorophenyl)-1,3-thiazol-2-yl]-N-pyrazin-2-ylpiperazine-1-carboxamide], the inhibition at 1 µM was found to be 105%. For the compound `O=C(Nc1ccc2[nH]nnc2c1)N1CCN(c2nc(-c3ccccc3)ns2)CC1` [Example 71, N-1H-1,2,3-Benzotriazol-5-yl-4-(3-phenyl-1,2,4-thiadiazol-5-yl)piperazine-1-carboxamide], the inhibition at 1 µM came to 108%.

As for `O=C(Nc1cccnn1)N1CCN(c2nc(-c3cccc(F)c3)cs2)CC1` [Example 228, 4-[4-(3-Fluorophenyl)-1,3-thiazol-2-yl]-N-pyridazin-3-ylpiperazine-1-carboxamide], the inhibition at 1 µM came to 106%. With `COc1cccc(-c2csc(N3CCN(C(=O)Nc4onc(C)c4C)CC3)n2)c1` [Example 277, N-(3,4-Dimethylisoxazol-5-yl)-4-[4-(3-methoxyphenyl)-1,3-thiazol-2-yl]piperazine-1-carboxamide] the figure was 100%; with `CCc1sc(N2CCN(C(=O)Nc3ccc(NC(C)=O)nc3)CC2)nc1-c1ccccc1` [Example 226, N-[6-(Acetylamino)pyridin-3-yl]-4-(5-ethyl-4-phenyl-1,3-thiazol-2-yl)piperazine-1-carboxamide], 104%. For `Cc1noc(NC(=O)N2CCN(c3nc(-c4cccc(Cl)c4Cl)cs3)CC2)c1C` [Example 284, 4-[4-(2,3-Dichlorophenyl)-1,3-thiazol-2-yl]-N-(3,4-dimethylisoxazol-5-yl)piperazine-1-carboxamide] the value was 128%; for `CC(C)c1nsc(N2CCN(C(=O)Nc3noc4ccccc34)CC2)n1` [Example 9, N-1,2-Benzisoxazol-3-yl-4-(3-isopropyl-1,2,4-thiadiazol-5-yl)piperazine-1-carboxamide], 98%; for `O=C(Nc1noc2ccccc12)N1CCN(c2nc(-c3ccccn3)ns2)CC1` [Example 15, N-1,2-Benzisoxazol-3-yl-4-(3-pyridin-2-yl-1,2,4-thiadiazol-5-yl)piperazine-1-carboxamide], 102%. For `Cc1cccc(-c2csc(N3CCN(C(=O)Nc4onc(C)c4C)CC3)n2)c1` [Example 280, N-(3,4-Dimethylisoxazol-5-yl)-4-[4-(3-methylphenyl)-1,3-thiazol-2-yl]piperazine-1-carboxamide] the value was 86%; for `O=C(Nc1cccnc1)N1CCN(c2nc(-c3cccc(F)c3F)cs2)CC1` [Example 262, 4-[4-(2,3-Difluorophenyl)-1,3-thiazol-2-yl]-N-pyridin-3-ylpiperazine-1-carboxamide], 106%. As for `O=C(Nc1cccnc1)N1CCN(c2nc(-c3ccccc3)ns2)CC1` [Example 85, 4-(3-Phenyl-1,2,4-thiadiazol-5-yl)-N-pyridin-3-ylpiperazine-1-carboxamide hydrochloride], the inhibition at 1 µM amounted to 100%. Take `O=C(Nc1cnccn1)N1CCN(c2nc(-c3ccccc3)cs2)CC1` [Example 166, 4-(4-Phenyl-1,3-thiazol-2-yl)-N-pyrazin-2-ylpiperazine-1-carboxamide]: the inhibition at 1 µM is 106%. With `Cc1noc(NC(=O)N2CCC(c3nc(-c4ccccc4)cs3)CC2)c1C` [Example 190, N-(3,4-Dimethylisoxazol-5-yl)-4-(4-phenyl-1,3-thiazol-2-yl)piperidine-1-carboxamide], the inhibition at 1 µM turned out to be 103%. For `Cc1noc(NC(=O)N2CCN(c3nc(-c4cccc(Cl)c4)cs3)CC2)c1C` [Example 276, 4-[4-(3-Chlorophenyl)-1,3-thiazol-2-yl]-N-(3,4-dimethylisoxazol-5-yl)piperazine-1-carboxamide] the value was 104%; for `O=C(Nc1cccnn1)N1CCN(c2nc(-c3ccccc3)ns2)CC1` [Example 147, 4-(3-Phenyl-1,2,4-thiadiazol-5-yl)-N-pyridazin-3-ylpiperazine-1-carboxamide], 101%.

For the compound `O=C(Nc1noc2ccccc12)N1CCN(c2nc(N3CCCCC3)ns2)CC1` [Example 17, N-1,2-Benzisoxazol-3-yl-4-(3-piperidin-1-yl-1,2,4-thiadiazol-5-yl)piperazine-1-carboxamide], the inhibition at 1 µM is 95%. `Cc1cccc(-c2csc(N3CCN(C(=O)Nc4cccnc4)CC3)n2)c1` [Example 275, 4-[4-(3-Methylphenyl)-1,3-thiazol-2-yl]-N-pyridin-3-ylpiperazine-1-carboxamide]: the inhibition at 1 µM came to 94%.

Turning to `O=C(Nc1cccnc1)N1CCN(c2nc(-c3cccc(Cl)c3Cl)cs2)CC1` [Example 283, 4-[4-(2,3-Dichlorophenyl)-1,3-thiazol-2-yl]-N-pyridin-3-ylpiperazine-1-carboxamide], the inhibition at 1 µM is 102%. With `O=C(Nc1noc2ccccc12)N1CCN(C(=O)OCc2ccccc2)CC1` [Example 95, Benzyl 4-[(1,2-benzisoxazol-3-ylamino)carbonyl]piperazine-1-carboxylate] the figure was 100%; with `Cc1noc(NC(=O)N2CCC(c3nc(-c4ccc(F)cc4)cs3)CC2)c1C` [Example 236, N-(3,4-Dimethylisoxazol-5-yl)-4-[4-(4-fluorophenyl)-1,3-thiazol-2-yl]piperidine-1-carboxamide], 106%; with `Cc1noc(NC(=O)N2CCN(c3nc(-c4cccc(C(F)(F)F)c4)cs3)CC2)c1C` [Example 278, N-(3,4-Dimethylisoxazol-5-yl)-4-{4-[3-(trifluoromethyl)phenyl]-1,3-thiazol-2-yl}piperazine-1-carboxamide], 104%.

`O=C(Nc1noc2ccccc12)N1CCN(c2nc(-c3ccccc3)no2)CC1` [Example 22, N-1,2-Benzisoxazol-3-yl-4-(3-phenyl-1,2,4-oxadiazol-5-yl)piperazine-1-carboxamide]: the inhibition at 1 µM came out at 94%.

For the origin of these results see US7851473B2, “Amide compound” (Takeda Pharmaceutical Company Limited, priority 2004, dated 2010).
